Test results from PubChem BioAssay AID256 (DTP/NCI, 2004).
“And” between values parts separate entries of the source, which are not always exact repeats. Equal entries are not always repeated. Toxic doses and inconclusive results are not listed.

Test system: CD2F1 mice, L1210 leukemia ip, survival T/C
Test: NCI In Vivo Anticancer Drug Screen. Data for tumor model L1210 Leukemia (intraperitoneal) in CD2F1 (CDF1) mice
Conditions: higher = longer survival
Procedure, shortened: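 Read-out first: treated-group measurement over vehicle-control measurement, expressed as a ratio. Animals bore a transplanted tumor line and were dosed with compound or vehicle.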

[1] = endpoint: mean survival time, dose: 12.5 mg/kg/injection, schedule: Q01DX009 (ip), vehicle: saline with Tween-80
[2] = endpoint: mean survival time, dose: 25.0 mg/kg/injection, schedule: Q01DX009 (ip), vehicle: saline with Tween-80
[3] = endpoint: mean survival time, dose: 50.0 mg/kg/injection, schedule: Q01DX009 (ip), vehicle: saline with Tween-80
[4] = endpoint: mean survival time, dose: 100.0 mg/kg/injection, schedule: Q01DX009 (ip), vehicle: saline with Tween-80
[5] = endpoint: mean survival time, dose: 200.0 mg/kg/injection, schedule: Q01DX009 (ip), vehicle: saline with Tween-80
[6] = endpoint: mean survival time, dose: 25.0 mg/kg/injection, schedule: Q04DX003 (ip), vehicle: saline with Tween-80
[7] = endpoint: mean survival time, dose: 50.0 mg/kg/injection, schedule: Q04DX003 (ip), vehicle: saline with Tween-80
[8] = endpoint: mean survival time, dose: 100.0 mg/kg/injection, schedule: Q04DX003 (ip), vehicle: saline with Tween-80
[9] = endpoint: mean survival time, dose: 200.0 mg/kg/injection, schedule: Q04DX003 (ip), vehicle: saline with Tween-80
[10] = endpoint: mean survival time, dose: 400.0 mg/kg/injection, schedule: Q04DX003 (ip), vehicle: saline with Tween-80
[11] = endpoint: mean survival time, dose: 200.0 mg/kg/injection, schedule: Q01DX001 (ip), vehicle: saline with Tween-80
[12] = endpoint: mean survival time, dose: 400.0 mg/kg/injection, schedule: Q01DX001 (ip), vehicle: saline with Tween-80

## COC1=C(OC)C(=O)C(C/C=C(\C)CC/C=C(\C)CC/C=C(\C)CC/C=C(\C)CC/C=C(\C)CC/C=C(\C)CC/C=C(\C)CC/C=C(\C)CC/C=C(\C)CCC=C(C)C)=C(C)C1=O
endpoint: mean survival time, dose: 6.25 mg/kg/injection, schedule: Q01DX009 (ip), vehicle: saline with Tween-80
  T/C: 116 % of control and 97 % of control
[1]
  T/C: 98 % of control and 100 % of control
[2]
  T/C: 94 % of control and 100 % of control
[3]
  T/C: 97 % of control and 106 % of control
endpoint: mean survival time, dose: 100.0 mg/kg/injection, schedule: Q01DX001 (ip), vehicle: saline
  T/C: 96 % of control
[4]
  T/C: 94 % of control and 102 % of control
endpoint: mean survival time, dose: 200.0 mg/kg/injection, schedule: Q01DX001 (ip), vehicle: saline
  T/C: 92 % of control
[5]
  T/C: 97 % of control and 100 % of control
endpoint: mean survival time, dose: 400.0 mg/kg/injection, schedule: Q01DX001 (ip), vehicle: saline
  T/C: 94 % of control

## CCN1CC2c3cc(OC)c(OC)cc3CC(c3ccccc3)C2C1 (stereo not drawn)
endpoint: mean survival time, dose: 12.5 mg/kg/injection, schedule: Q04DX003 (ip), vehicle: saline with Tween-80
  T/C: 108 % of control
[6]
  T/C: 104 % of control
[7]
  T/C: 92 % of control

## COC(=O)c1ccc([N+](=O)[O-])cc1C(=O)OC
[8]
  T/C: 100 % of control
[9]
  T/C: 108 % of control
[10]
  T/C: 102 % of control

## CCCCCCC[CH2][Sn]1([CH2]CCCCCCC)[O]C2C(CO)OC(n3ccc(N)nc3=O)C2[O]1 (stereo not drawn)
endpoint: mean survival time, dose: 12.5 mg/kg/injection, schedule: Q01DX005 (ip), vehicle: other
  T/C: 103 % of control
endpoint: mean survival time, dose: 25.0 mg/kg/injection, schedule: Q01DX005 (ip), vehicle: other
  T/C: 97 % of control
endpoint: mean survival time, dose: 50.0 mg/kg/injection, schedule: Q01DX005 (ip), vehicle: other
  T/C: 100 % of control
endpoint: mean survival time, dose: 100.0 mg/kg/injection, schedule: Q01DX005 (ip), vehicle: other
  T/C: 109 % of control

## ON=C1c2cc(Br)ccc2-c2ccc(Br)cc21
endpoint: mean survival time, dose: 50.0 mg/kg/injection, schedule: Q01DX001 (ip), vehicle: carboxymethylcellulose (CMC)
  T/C: 104 % of control
endpoint: mean survival time, dose: 100.0 mg/kg/injection, schedule: Q01DX001 (ip), vehicle: carboxymethylcellulose (CMC)
  T/C: 102 % of control
endpoint: mean survival time, dose: 200.0 mg/kg/injection, schedule: Q01DX001 (ip), vehicle: carboxymethylcellulose (CMC)
  T/C: 98 % of control
endpoint: mean survival time, dose: 400.0 mg/kg/injection, schedule: Q01DX001 (ip), vehicle: carboxymethylcellulose (CMC)
  T/C: 102 % of control

## C=CCN(C)N=Nc1ccc(C(N)=O)cc1
endpoint: mean survival time, dose: 18.75 mg/kg/injection, schedule: Q01DX009 (ip), vehicle: Klucel (hydroxypropylcellulose) (HPC)
  T/C: 106 % of control
endpoint: mean survival time, dose: 37.5 mg/kg/injection, schedule: Q01DX009 (ip), vehicle: Klucel (hydroxypropylcellulose) (HPC)
  T/C: 115 % of control
endpoint: mean survival time, dose: 150.0 mg/kg/injection, schedule: Q01DX009 (ip), vehicle: Klucel (hydroxypropylcellulose) (HPC)
  T/C: 156 % of control
endpoint: mean survival time, dose: 300.0 mg/kg/injection, schedule: Q01DX009 (ip), vehicle: Klucel (hydroxypropylcellulose) (HPC)
  T/C: 92 % of control

## Cc1cc(C)cc(C(C)C)c1
[4]
  T/C: 98 % of control
[5]
  T/C: 101 % of control

## C1CC2(CCC13CO3)CO2 (stereo not drawn)
endpoint: mean survival time, dose: 25.0 mg/kg/injection, schedule: Q04DX002 (ip), vehicle: saline with Tween-80
  T/C: 91 % of control
endpoint: mean survival time, dose: 50.0 mg/kg/injection, schedule: Q04DX002 (ip), vehicle: saline with Tween-80
  T/C: 91 % of control and 103 % of control
endpoint: mean survival time, dose: 100.0 mg/kg/injection, schedule: Q04DX002 (ip), vehicle: Klucel (hydroxypropylcellulose) (HPC)
  T/C: 102 % of control
endpoint: mean survival time, dose: 100.0 mg/kg/injection, schedule: Q04DX002 (ip), vehicle: saline with Tween-80
  T/C: 91 % of control and 107 % of control
endpoint: mean survival time, dose: 200.0 mg/kg/injection, schedule: Q04DX002 (ip), vehicle: Klucel (hydroxypropylcellulose) (HPC)
  T/C: 112 % of control
endpoint: mean survival time, dose: 200.0 mg/kg/injection, schedule: Q04DX002 (ip), vehicle: saline with Tween-80
  T/C: 100 % of control and 119 % of control
endpoint: mean survival time, dose: 400.0 mg/kg/injection, schedule: Q04DX002 (ip), vehicle: Klucel (hydroxypropylcellulose) (HPC)
  T/C: 119 % of control
endpoint: mean survival time, dose: 600.0 mg/kg/injection, schedule: Q04DX002 (ip), vehicle: Klucel (hydroxypropylcellulose) (HPC)
  T/C: 119 % of control
endpoint: median survival time, dose: 50.0 mg/kg/injection, schedule: Q04DX002 (ip), vehicle: saline with Tween-80
  T/C: 102 % of control
endpoint: median survival time, dose: 100.0 mg/kg/injection, schedule: Q04DX002 (ip), vehicle: saline with Tween-80
  T/C: 105 % of control
endpoint: median survival time, dose: 200.0 mg/kg/injection, schedule: Q04DX002 (ip), vehicle: saline with Tween-80
  T/C: 105 % of control
endpoint: median survival time, dose: 400.0 mg/kg/injection, schedule: Q04DX002 (ip), vehicle: saline with Tween-80
  T/C: 109 % of control
endpoint: median survival time, dose: 800.0 mg/kg/injection, schedule: Q04DX002 (ip), vehicle: saline with Tween-80
  T/C: 114 % of control

## O=C1C(C(O)c2ccccc2)CCCC1C(O)c1ccccc1 (stereo not drawn)
[8]
  T/C: 89 % of control
[9]
  T/C: 89 % of control
[10]
  T/C: 92 % of control

## CCN(CC)C(=O)N1CCN(c2ccccc2)CC1
endpoint: mean survival time, dose: 100.0 mg/kg/injection, schedule: Q04DX003 (ip), vehicle: saline
  T/C: 98 % of control
endpoint: mean survival time, dose: 200.0 mg/kg/injection, schedule: Q04DX003 (ip), vehicle: saline
  T/C: 93 % of control

## CCCCCCCCCCCCCCCC(CCCC)CCCCCC (stereo not drawn)
endpoint: mean survival time, dose: 100.0 mg/kg/injection, schedule: Q01DX001 (ip), vehicle: saline sonified
  T/C: 108 % of control
endpoint: mean survival time, dose: 200.0 mg/kg/injection, schedule: Q01DX001 (ip), vehicle: saline sonified
  T/C: 98 % of control
endpoint: mean survival time, dose: 400.0 mg/kg/injection, schedule: Q01DX001 (ip), vehicle: saline sonified
  T/C: 104 % of control

## O=[N+]([O-])c1ccc(NCS(=O)(=O)O)cc1
endpoint: mean survival time, dose: 100.0 mg/kg/injection, schedule: Q01DX001 (ip), vehicle: saline with Tween-80
  T/C: 91 % of control
[11]
  T/C: 94 % of control
[12]
  T/C: 87 % of control

## CCCCCCCCCCCCCCCOc1ccc(OCCCCCCCCCCCCCC)cc1
[11]
  T/C: 89 % of control
[12]
  T/C: 88 % of control

## COc1cc(CNC(=O)/C(C)=C/Cl)ccc1O
[1]
  T/C: 96 % of control
[2]
  T/C: 95 % of control
[3]
  T/C: 101 % of control

## ClC=C(c1ccc(Cl)cc1)c1ccc(Cl)cc1
[8]
  T/C: 97 % of control
[9]
  T/C: 97 % of control
[10]
  T/C: 101 % of control

## CSc1ncc(Br)c(C(=O)O)n1
[8]
  T/C: 96 % of control
[9]
  T/C: 96 % of control
[10]
  T/C: 93 % of control

## O=C(O)/C=C(/Cl)c1ccccc1
[4]
  T/C: 101 % of control
[5]
  T/C: 91 % of control
endpoint: mean survival time, dose: 400.0 mg/kg/injection, schedule: Q01DX009 (ip), vehicle: saline with Tween-80
  T/C: 89 % of control

## CC(N)(CCO)C(=O)O (stereo not drawn)
endpoint: mean survival time, dose: 100.0 mg/kg/injection, schedule: Q01DX009 (ip), vehicle: saline sonified
  T/C: 97 % of control
[8]
  T/C: 101 % of control
endpoint: mean survival time, dose: 200.0 mg/kg/injection, schedule: Q01DX009 (ip), vehicle: saline sonified
  T/C: 104 % of control
[9]
  T/C: 101 % of control
endpoint: mean survival time, dose: 400.0 mg/kg/injection, schedule: Q01DX009 (ip), vehicle: saline sonified
  T/C: 103 % of control
[10]
  T/C: 98 % of control

## Cc1ccc2c(c1)C(=O)N(CC[P+](c1ccccc1)(c1ccccc1)c1ccccc1)C2=O
endpoint: mean survival time, dose: 0.39 mg/kg/injection, schedule: Q01DX009 (ip), vehicle: Klucel (hydroxypropylcellulose) (HPC)
  T/C: 105 % of control
endpoint: mean survival time, dose: 0.78 mg/kg/injection, schedule: Q01DX009 (ip), vehicle: Klucel (hydroxypropylcellulose) (HPC)
  T/C: 100 % of control
endpoint: mean survival time, dose: 1.56 mg/kg/injection, schedule: Q01DX009 (ip), vehicle: Klucel (hydroxypropylcellulose) (HPC)
  T/C: 112 % of control
endpoint: mean survival time, dose: 3.12 mg/kg/injection, schedule: Q01DX009 (ip), vehicle: Klucel (hydroxypropylcellulose) (HPC)
  T/C: 103 % of control
endpoint: mean survival time, dose: 6.25 mg/kg/injection, schedule: Q01DX009 (ip), vehicle: Klucel (hydroxypropylcellulose) (HPC)
  T/C: 105 % of control
endpoint: mean survival time, dose: 12.5 mg/kg/injection, schedule: Q01DX009 (ip), vehicle: Klucel (hydroxypropylcellulose) (HPC)
  T/C: 101 % of control
endpoint: mean survival time, dose: 25.0 mg/kg/injection, schedule: Q01DX009 (ip), vehicle: Klucel (hydroxypropylcellulose) (HPC)
  T/C: 105 % of control

## CCN(CC)CCNc1ccc(C)c2sc3ccc(O)cc3c(=O)c12
endpoint: median survival time, dose: 12.0 mg/kg/injection, schedule: Q01DX009 (ip), vehicle: saline with Tween-80
  T/C: 106 % of control
endpoint: median survival time, dose: 12.5 mg/kg/injection, schedule: Q01DX009 (ip), vehicle: saline with Tween-80
  T/C: 110 % of control
endpoint: median survival time, dose: 25.0 mg/kg/injection, schedule: Q01DX009 (ip), vehicle: saline with Tween-80
  T/C: 121 % of control
endpoint: median survival time, dose: 50.0 mg/kg/injection, schedule: Q01DX009 (ip), vehicle: saline with Tween-80
  T/C: 159 % of control
endpoint: median survival time, dose: 200.0 mg/kg/injection, schedule: Q01DX009 (ip), vehicle: saline with Tween-80
  T/C: 103 % of control

## CCCCOc1cc([N+](=O)[O-])ccc1CO
[8]
  T/C: 94 % of control
[9]
  T/C: 92 % of control
[10]
  T/C: 87 % of control

## N#Cc1ccc([N+](=O)[O-])o1
[1]
  T/C: 104 % of control
[2]
  T/C: 101 % of control
[6]
  T/C: 102 % of control
[3]
  T/C: 92 % of control
[7]
  T/C: 96 % of control
